Converted amounts (≈) assume the structure as drawn.
Legend:
[1] = system: Klebsiella pneumonia; experiment: Antimicrobial activity, tube dilution method (MIC); type: cell-based; settings: Klebsiella pneumoniae, 24 h, read-out: Minimum inhibitory concentration, K. pneumonia, tube dilution, 37 ± 1 °C, 24 h
Protocol: (§1) The in vitro antimicrobial activity of synthesized compounds was done by tube dilution method against Gram-positive bacteria: Staphylococcus aureus, Bacillus subtilis, Gram-negative bacteria: Escherichia coli, Klebsiella pneumonia, Salmonella typhi and fungal: Candida albicans and Aspergillus niger strains using cefadroxil and fluconazole as standard. Dilutions of test and standard compounds were prepared in double strength nutrient broth for bacterial strains and Sabouraud dextrose broth for fungal strains.

[2] = system: Staphylococcus aureus; experiment: Antimicrobial activity, tube dilution method (MIC); type: cell-based; settings: 24 h, read-out: Minimum inhibitory concentration, S. aureus, tube dilution, 37 ± 1 °C, 24 h
Protocol: as §1

[3] = system: Bacillus subtilis; experiment: Antimicrobial activity, tube dilution method (MIC); type: cell-based; settings: 24 h, read-out: Minimum inhibitory concentration, B. subtilis, tube dilution, 37 ± 1 °C, 24 h
Protocol: as §1

[4] = system: Salmonella typhi; experiment: Antimicrobial activity, tube dilution method (MIC); type: cell-based; settings: Salmonella enterica, TYPHI, 24 h, read-out: Minimum inhibitory concentration, S. typhi
Protocol: as §1

[5] = system: Escherichia coli; experiment: Antimicrobial activity, tube dilution method (MIC); type: cell-based; settings: 24 h, read-out: Minimum inhibitory concentration, E. coli, tube dilution, 37 ± 1 °C, 24 h
Protocol: as §1

[6] = Antioxidant activity: free radical scavenging method by DPPH assay; settings: for % inhibition (DPPH), 25 μg/ml / % inhibition (DPPH), 50 μg/ml / % inhibition (DPPH), 75 μg/ml / % inhibition (DPPH), 100 μg/ml: 30 min, 517 nm; for IC50 (antioxidant activity, DPPH): calculated via graph of % inhibition
Protocol: The antioxidant activity of the newly synthesized compounds were evaluated spectrophotometrically using free radical scavenging method by DPPH (2,2-diphenyl-1-picrylhydrazyl) assay. The DPPH is a stable free radical with maximal absorption at 517 nm and is reduced to a corresponding hydrazine when it reacting with hydrogen donors. […] DPPH solution (3 μg/ml) was prepared in methanol and DPPH (in 1:1) solution was used for blank reference. Four dilutions of different concentrations (25, 50, 75 and 100 μg/ml) of each synthesized compound and standard (ascorbic acid) were prepared in the methanol and 1 ml of each concentration was added to 1 ml of DPPH solution. The solution mixture was shaken vigorously and kept in dark place for 30 min at room temperature and absorbance was measured by UV at 517 nm. Percentage inhibition of Free radical DPPH was calculated as follows:1 %Inhibition=ABlank-ASample/ABlank×100 where, ABlank: absorbance of the blank reaction, ASample: absorbance of the test compound.

[7] = system: α-amylase enzyme (diastase); experiment: Antidiabetic activity: α-amylase inhibitory activity using diastase, colorimetric method; type: biochemical; settings: for IC50 (antidiabetic activity, α-amylase): calculated via graph of % inhibition
Protocol: All the synthesized compounds were evaluated against α-amylase inhibitory activity by using diastase based on colorimetric method. 0.25 g of soluble potato starch was dissolved in 50 ml of 20 mM phosphate buffer by heating for 15 min. 1 mg diastase (amylase enzyme) was mixed in 100 ml of 20 mM phosphate buffer (pH 6.9) to obtain the enzyme solution. Different concentrations of all the synthesized derivatives were prepared by dissolving them in DMSO. […] 1 ml of enzyme solution was mixed with 1 ml of each synthesized derivatives and incubated for 10 min at 25 °C. Then 1 ml of this mixture was mixed with 1 ml of soluble potato starch solution in a tube and incubated for 10 min at 25 °C. Then tubes were closed after adding 1 ml of color reagent and placed into water bath for 15 min at 85 °C. The reaction mixture was removed from water bath after 15 min. After cooling, the reaction mixture was diluted with 9 ml of distilled water and the absorbance was taken at 540 nm in UV spectrophotometer. Blank solution was prepared by replacing the enzyme solution with buffer solution and absorbance was taken. Measurement of control was performed in identical manner by replacing the synthesized derivatives in 1 ml of DMSO.
Percentage inhibition of α-amylase enzyme was calculated by using following formula:1 %Inhibition=ABlank-ASample/ABlank×100

[8] = system: Candida albicans; experiment: Antifungal activity, tube dilution method (MIC); type: cell-based; settings: 48 h, read-out: Minimum inhibitory concentration, C. albicans, tube dilution, 37 ± 1 °C, 48 h
Protocol: as §1

[9] = system: Aspergillus niger; experiment: Antifungal activity, tube dilution method (MIC); type: cell-based; settings: 168 h, read-out: Minimum inhibitory concentration, A. niger, tube dilution, 25 ± 1 °C, 7 days
Protocol: as §1

SMILES	MIC [1]	MIC [2]	MIC [3]	MIC [4]	MIC [5]	% inhibition (DPPH), 25 μg/ml [6]	% inhibition (DPPH), 50 μg/ml [6]	% inhibition (DPPH), 75 μg/ml [6]	% inhibition (DPPH), 100 μg/ml [6]	IC50 (antioxidant activity, DPPH) [6]	% inhibition (α-amylase), 25 μg/ml [7]	% inhibition (α-amylase), 50 μg/ml [7]	% inhibition (α-amylase), 75 μg/ml [7]	% inhibition (α-amylase), 100 μg/ml [7]	IC50 (antidiabetic activity, α-amylase) [7]	MIC [8]	MIC [9]	melting point
CN(C)c1ccc(C=C2SC(=O)NC2=O)cc1 [Compound 6, 5-(4-(Dimethylamino)benzylidene)thiazolidine-2,4-dione]	10.1 mM (≈ 2500 µg/mL)	5 mM (≈ 1240 µg/mL)	5 mM (≈ 1240 µg/mL)	5 mM (≈ 1240 µg/mL)	4.99 mM (≈ 1240 µg/mL)	19.54%	38.93%	62.65%	75.82%	48.13 µg/mL (≈ 194 µM)	33.56%	49.45%	50.78%	97.15%	37.35 µg/mL (≈ 150 µM)	20.1 mM (≈ 4990 µg/mL)	10.1 mM (≈ 2500 µg/mL)	147 to 150 °C
O=Cc1ccc(C=C2SC(=O)NC2=O)cc1 [Compound 21, 4-((2,4-Dioxothiazolidin-5-ylidene)methyl)benzaldehyde]	10.7 mM (≈ 2500 µg/mL)	5.3 mM (≈ 1240 µg/mL)	5.3 mM (≈ 1240 µg/mL)	5.3 mM (≈ 1240 µg/mL)	5.3 mM (≈ 1240 µg/mL)	17.91%	41.64%	75.98%	92.32%	55.51 µg/mL (≈ 238 µM)	21.98%	47.28%	70.56%	74.76%	38.65 µg/mL (≈ 166 µM)	5.3 mM (≈ 1240 µg/mL)	5.3 mM (≈ 1240 µg/mL)	147 to 150 °C

Source: article PMC6768028, “Synthesis, SAR and in vitro therapeutic potentials of thiazolidine-2,4-diones” (Chemistry Central Journal, 2018)
